In ChEMBL document CHEMBL1926511, “Novel amino-piperidines as potent antibacterials targeting bacterial type IIA topoisomerases” (Bioorg Med Chem Lett, 2011):
≈ marks a conversion by molar mass, not a printed value. One block for each compound: values may come before it. Calls of active or inactive are those of the source. No cut-off for these calls is given here.

Assays:
Streptococcus pneumoniae [1] = test: Antibacterial activity against Streptococcus pneumoniae 1629 infected in rat respiratory tract infection model assessed as log reduction in bacterial burden at 50 mg/kg, po after 1 hr post infection relative to non-treated control; type: functional
Staphylococcus aureus = test: Antibacterial activity against Staphylococcus aureus WCUH 29 after 18 to 24 hrs by broth microdilution method; type: functional
[2] = Inhibition of Haemophilus influenzae DNA gyrase-dependent DNA replication by scintillation proximity assay
[3] = Distribution coefficient, log D of the compound at pH 7.4; type: physicochemical; details: octanol/water
Streptococcus pneumoniae [4] = test: Antibacterial activity against Streptococcus pneumoniae 1629 infected in rat respiratory tract infection model assessed as complete eradication of bacterial burden at 50 mg/kg, po after 31 hrs post infection; type: functional, organism-based; design: dose 50 mg/kg
Streptococcus pneumoniae [5] = test: Antibacterial activity against Streptococcus pneumoniae 1629 after 18 to 24 hrs by broth microdilution method; type: functional
Streptococcus pneumoniae [6] = test: Antibacterial activity against Streptococcus pneumoniae 1629 infected in rat respiratory tract infection model assessed as log reduction in bacterial burden at 50 mg/kg, po after 48 hrs post infection relative to non-treated control; type: functional
Haemophilus influenzae = test: Antibacterial activity against Haemophilus influenzae H128 after 18 to 24 hrs by broth microdilution method; type: functional
[7] = Inhibition of Escherichia coli DNA gyrase-dependent DNA replication by scintillation proximity assay
[8] = target: T1, Voltage-gated inwardly rectifying potassium channel KCNH2 (Homo sapiens, UniProt Q12809); test: Displacement of [3H]dofetilide from human ERG by liquid scintillation counting
[9] = target: T1, Voltage-gated inwardly rectifying potassium channel KCNH2; test: Inhibition of human ERG expressed in HEK293 cells by patch-clamp electrophysiology; type: cell-based
[10] = Blood clearance in Beagle dog at 3.5 mg/kg, iv; type: ADME, organism-based, Canis lupus familiaris; design: dose 3.5 mg/kg, route intravenous; details: whole blood
[11] = Half life in Beagle dog at 3.5 mg/kg, iv; type: ADME, organism-based, Canis lupus familiaris; design: dose 3.5 mg/kg, route intravenous; details: in vivo
[12] = Oral bioavailability in Beagle dog at 4 mg/kg; type: ADME, organism-based, Canis lupus familiaris; details: in vivo
Canis familiaris = organism: Canis familiaris; test: Hepatic blood flow in Beagle dog; type: ADME, organism-based, Canis lupus familiaris, Liver
[13] = Mean residence time in cynomolgus monkey at 3.1 mg/kg, iv; type: ADME, organism-based, Macaca fascicularis; design: dose 3.1 mg/kg, route intravenous; details: in vivo
Rattus norvegicus = organism: Rattus norvegicus; test: Hepatic blood flow in Sprague-Dawley rat; type: ADME, organism-based, Liver
[14] = Mean residence time in Sprague-Dawley rat at 3.5 mg/kg, iv; type: ADME, organism-based; design: dose 3.5 mg/kg, route intravenous; details: in vivo
[15] = Volume of distribution at steady state in cynomolgus monkey at 3.1 mg/kg, iv; type: ADME, organism-based, Macaca fascicularis; design: dose 3.1 mg/kg, route intravenous; details: in vivo, read-out: Vdss
[16] = AUC in Beagle dog at 4 mg/kg, po; type: ADME, organism-based, Canis lupus familiaris; design: dose 4 mg/kg, route oral; details: plasma
[17] = AUC in cynomolgus monkey at 5.2 mg/kg, po; type: ADME, organism-based, Macaca fascicularis; design: dose 5.2 mg/kg, route oral; details: plasma
[18] = Volume of distribution at steady state in Sprague-Dawley rat at 3.5 mg/kg, iv; type: ADME, organism-based; design: dose 3.5 mg/kg, route intravenous; details: in vivo, read-out: Vdss
[19] = Plasma protein binding in rat; type: ADME, cell-free; details: read-out: PPB (converted)
[20] = Blood clearance in cynomolgus monkey at 3.1 mg/kg, iv; type: ADME, organism-based, Macaca fascicularis; design: dose 3.1 mg/kg, route intravenous; details: whole blood
[21] = Mean residence time in Beagle dog at 3.5 mg/kg, iv; type: ADME, organism-based, Canis lupus familiaris; design: dose 3.5 mg/kg, route intravenous; details: in vivo
[22] = Half life in Sprague-Dawley rat at 3.5 mg/kg, iv; type: ADME, organism-based; design: dose 3.5 mg/kg, route intravenous; details: in vivo
[23] = Oral bioavailability in Sprague-Dawley rat at 5.6 mg/kg; type: ADME, organism-based; details: in vivo
[24] = Oral bioavailability in cynomolgus monkey at 5.2 mg/kg; type: ADME, organism-based, Macaca fascicularis; details: in vivo
[25] = AUC in Sprague-Dawley rat at 5.6 mg/kg, po; type: ADME, organism-based; design: dose 5.6 mg/kg, route oral; details: plasma
Liver = test: Intrinsic clearance in dog liver microsomes; type: ADME, Canis lupus familiaris, Microsome
Liver microsomes = test: Intrinsic clearance in human liver microsomes; type: ADME, Microsome
Cynomolgus monkey = test: Hepatic blood flow in cynomolgus monkey; type: ADME, organism-based, Macaca fascicularis, Liver
[26] = Half life in cynomolgus monkey at 3.1 mg/kg, iv; type: ADME, organism-based, Macaca fascicularis; design: dose 3.1 mg/kg, route intravenous; details: in vivo
[27] = Volume of distribution at steady state in Beagle dog at 3.5 mg/kg, iv; type: ADME, organism-based, Canis lupus familiaris; design: dose 3.5 mg/kg, route intravenous; details: in vivo, read-out: Vdss
[28] = Blood clearance in Sprague-Dawley rat at 3.5 mg/kg, iv; type: ADME, organism-based; design: dose 3.5 mg/kg, route intravenous; details: whole blood
[29] = Intrinsic clearance in cynomolgus monkey liver microsomes; type: ADME, Macaca fascicularis, Microsome
[30] = Plasma protein binding in cynomolgus monkey; type: ADME, cell-free, Macaca fascicularis; details: read-out: PPB (converted)
[31] = Plasma protein binding in human; type: ADME, cell-free; details: read-out: PPB (converted)

T1 sequence (Q12809 whole entry): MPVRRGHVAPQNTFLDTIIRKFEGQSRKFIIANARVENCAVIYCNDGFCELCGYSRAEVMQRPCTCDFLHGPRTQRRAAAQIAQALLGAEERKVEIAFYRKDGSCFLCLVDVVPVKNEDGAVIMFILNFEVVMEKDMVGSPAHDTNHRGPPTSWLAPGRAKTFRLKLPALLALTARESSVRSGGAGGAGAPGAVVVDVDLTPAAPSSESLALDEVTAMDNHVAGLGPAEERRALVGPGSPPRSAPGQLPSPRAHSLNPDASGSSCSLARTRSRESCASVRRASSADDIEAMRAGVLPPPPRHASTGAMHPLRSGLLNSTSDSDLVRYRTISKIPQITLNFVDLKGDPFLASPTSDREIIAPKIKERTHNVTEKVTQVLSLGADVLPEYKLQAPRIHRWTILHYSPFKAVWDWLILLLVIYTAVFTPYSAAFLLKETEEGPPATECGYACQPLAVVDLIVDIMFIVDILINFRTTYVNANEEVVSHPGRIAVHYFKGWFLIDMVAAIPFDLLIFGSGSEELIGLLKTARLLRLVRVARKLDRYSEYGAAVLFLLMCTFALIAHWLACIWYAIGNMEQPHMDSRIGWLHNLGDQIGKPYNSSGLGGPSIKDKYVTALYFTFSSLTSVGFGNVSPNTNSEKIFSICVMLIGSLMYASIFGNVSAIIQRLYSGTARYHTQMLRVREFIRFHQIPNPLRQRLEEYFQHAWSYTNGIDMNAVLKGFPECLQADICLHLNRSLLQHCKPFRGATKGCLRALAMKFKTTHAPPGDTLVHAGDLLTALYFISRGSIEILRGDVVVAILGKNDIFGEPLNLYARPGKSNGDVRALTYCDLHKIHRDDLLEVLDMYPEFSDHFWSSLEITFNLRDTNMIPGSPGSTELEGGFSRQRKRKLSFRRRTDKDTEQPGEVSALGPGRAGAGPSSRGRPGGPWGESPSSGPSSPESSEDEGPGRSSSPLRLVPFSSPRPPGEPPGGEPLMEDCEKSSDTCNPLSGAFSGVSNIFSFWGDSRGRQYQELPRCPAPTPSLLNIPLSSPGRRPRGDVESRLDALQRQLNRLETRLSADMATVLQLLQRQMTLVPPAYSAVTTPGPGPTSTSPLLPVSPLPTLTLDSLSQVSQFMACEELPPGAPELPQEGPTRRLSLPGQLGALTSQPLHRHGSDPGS

Compound: COc1ccc2nccc([C@@H](O)CN3CCC(NCc4ccc5c(c4)OCCO5)CC3)c2c1
MIC (Staphylococcus aureus): 0.125 mg/L (≈ 0.278 µM)
IC50 [7]: 0.008 mg/L (≈ 0.0178 µM)
logD [3]: 0.87
MIC (Streptococcus pneumoniae [5]): 0.125 mg/L (≈ 0.278 µM)
MIC (Haemophilus influenzae): 0.5 mg/L (≈ 1.11 µM)

Compound: COc1ccc2ncc(C#N)c(CCN3CCC(NCc4cc5c(cn4)OCS5)CC3)c2c1
MIC (Staphylococcus aureus): 0.01 mg/L (≈ 0.0217 µM)
IC50 [8]: 0.5 µM
IC50 [2]: 0.06 mg/L (≈ 0.13 µM)
IC50 [9]: 2 µM
logD [3]: 2.32
MIC (Streptococcus pneumoniae [5]): 0.01 mg/L (≈ 0.0217 µM)
MIC (Haemophilus influenzae): 0.25 mg/L (≈ 0.542 µM)

Compound: COc1ccc2nccc([C@@H](O)CN3CCC(NCc4cc5c(cn4)OCCO5)CC3)c2n1
MIC (Staphylococcus aureus): 0.06 mg/L (≈ 0.133 µM)
IC50 [7]: 0.056 mg/L (≈ 0.124 µM)
IC50 [8]: 25.1 µM
IC50 [2]: 0.016 mg/L (≈ 0.0354 µM)
IC50 [9]: 4 µM
logD [3]: 0.62
MIC (Streptococcus pneumoniae [5]): 0.125 mg/L (≈ 0.277 µM)
MIC (Haemophilus influenzae): 2 mg/L (≈ 4.43 µM)

Compound: COc1ccc2ncc(F)c(CCN3CCC(NCc4cc5c(cn4)OCCO5)CC3)c2c1
MIC (Staphylococcus aureus): 0.01 mg/L (≈ 0.0221 µM)
IC50 [8]: 5 µM
IC50 [2]: 0.031 mg/L (≈ 0.0685 µM)
IC50 [9]: 6 µM
logD [3]: 2.03
MIC (Streptococcus pneumoniae [5]): 0.03 mg/L (≈ 0.0663 µM)
MIC (Haemophilus influenzae): 0.25 mg/L (≈ 0.552 µM)

Compound: COc1ccc2ncc(F)c([C@@H](O)CN3CCC(NCc4cc5c(cn4)OCCO5)CC3)c2n1
clearance [10]: 1 L/h/kg
log10cfu (Streptococcus pneumoniae [1]): 2
half-life [11]: 12.4 h
bioavailability [12]: 76%
QH (Canis familiaris): 35%
MIC (Staphylococcus aureus): 0.03 mg/L (≈ 0.0639 µM)
MRT [13]: 4.6 h
QH (Rattus norvegicus): 100%
MRT [14]: 2.5 h
Vd [15]: 4.1 L/kg
IC50 [8]: 79.4 µM
AUC [16]: 2.51 µg·h/mL
AUC [17]: 0.72 µg·h/mL
Vd [18]: 9.8 L/kg
IC50 [2]: 0.078 mg/L (≈ 0.166 µM)
IC50 [9]: 5 µM
fraction unbound [19]: 0.589
clearance [20]: 0.912 L/h/kg
MRT [21]: 16.5 h
half-life [22]: 2.5 h
bioavailability [23]: 51%
logD [3]: 0.59
Activity (Streptococcus pneumoniae [4]): Active
bioavailability [24]: 12%
AUC [25]: 0.72 µg·h/mL
CL (Liver): 0.7 mL/min/g
CL (Liver microsomes): < 0.6 mL/min/g
QH (Cynomolgus monkey): 35%
half-life [26]: 5.6 h
Vd [27]: 16.5 L/kg
MIC (Streptococcus pneumoniae [5]): 0.06 mg/L (≈ 0.128 µM)
clearance [28]: 4.03 L/h/kg
log10cfu (Streptococcus pneumoniae [6]): >=4
CL [29]: 4.8 mL/min/g
MIC (Haemophilus influenzae): 0.5 mg/L (≈ 1.06 µM)
fraction unbound [30]: 0.354
fraction unbound [31]: 0.307

Compound: COc1ccc2ncc(F)c([C@H](O)CN3CCC(NCc4cc5c(cn4)OCCO5)CC3)c2n1
MIC (Staphylococcus aureus): 0.06 mg/L (≈ 0.128 µM)
IC50 [8]: 63.1 µM
IC50 [2]: 0.098 mg/L (≈ 0.209 µM)
MIC (Streptococcus pneumoniae [5]): 0.125 mg/L (≈ 0.266 µM)
MIC (Haemophilus influenzae): 1 mg/L (≈ 2.13 µM)

Compound: COc1ccc2ncc(C#N)c(CCN3CCC(NCc4cc5c(cn4)OCCO5)CC3)c2n1
MIC (Staphylococcus aureus): 0.01 mg/L (≈ 0.0217 µM)
IC50 [2]: 0.144 mg/L (≈ 0.313 µM)
logD [3]: 1.48
MIC (Streptococcus pneumoniae [5]): 0.03 mg/L (≈ 0.0651 µM)
MIC (Haemophilus influenzae): 0.5 mg/L (≈ 1.09 µM)

The next lines start with results.

MIC (Staphylococcus aureus): 0.01 mg/L (≈ 0.0213 µM)
IC50 [2]: 0.051 mg/L (≈ 0.109 µM)
logD [3]: 1.38
MIC (Streptococcus pneumoniae [5]): 0.06 mg/L (≈ 0.128 µM)
MIC (Haemophilus influenzae): 0.5 mg/L (≈ 1.06 µM)
Compound: COc1ccc2ncc(F)c(CCN3CC[C@@H](NCc4cc5c(cn4)OCCO5)[C@@H](O)C3)c2n1
log10cfu (Streptococcus pneumoniae [1]): 2
Activity (Streptococcus pneumoniae [4]): Active
log10cfu (Streptococcus pneumoniae [6]): >=4

MIC (Staphylococcus aureus): 0.01 mg/L (≈ 0.0213 µM)
IC50 [2]: 0.027 mg/L (≈ 0.0575 µM)
logD [3]: 2.4
MIC (Streptococcus pneumoniae [5]): 0.01 mg/L (≈ 0.0213 µM)
MIC (Haemophilus influenzae): 0.25 mg/L (≈ 0.532 µM)
Compound: COc1ccc2ncc(Cl)c(CCN3CCC(NCc4cc5c(cn4)OCCO5)CC3)c2n1
log10cfu (Streptococcus pneumoniae [1]): 2
IC50 [8]: 2 µM
IC50 [9]: 2 µM
Activity (Streptococcus pneumoniae [4]): Active
log10cfu (Streptococcus pneumoniae [6]): >=4

MIC (Staphylococcus aureus): 0.01 mg/L (≈ 0.0213 µM)
IC50 [2]: 0.058 mg/L (≈ 0.124 µM)
logD [3]: 2.16
MIC (Streptococcus pneumoniae [5]): 0.03 mg/L (≈ 0.0639 µM)
MIC (Haemophilus influenzae): 0.5 mg/L (≈ 1.06 µM)
Compound: COc1ccc2ncc(F)c(CCN3CC[C@@H](NCc4cc5c(cn4)OCCO5)[C@H](O)C3)c2n1

MIC (Staphylococcus aureus): 0.01 mg/L (≈ 0.0213 µM)
IC50 [2]: 0.058 mg/L (≈ 0.124 µM)
logD [3]: 2.1
MIC (Streptococcus pneumoniae [5]): 0.03 mg/L (≈ 0.0639 µM)
MIC (Haemophilus influenzae): 0.5 mg/L (≈ 1.06 µM)
Compound: COc1ccc2ncc(F)c(CCN3CC[C@H](NCc4cc5c(cn4)OCCO5)[C@@H](O)C3)c2n1

MIC (Staphylococcus aureus): 0.01 mg/L (≈ 0.022 µM)
IC50 [2]: 0.051 mg/L (≈ 0.112 µM)
logD [3]: 1.81
MIC (Streptococcus pneumoniae [5]): 0.01 mg/L (≈ 0.022 µM)
MIC (Haemophilus influenzae): 0.125 mg/L (≈ 0.276 µM)
Compound: COc1ccc2ncc(F)c(CCN3CCC(NCc4cc5c(cn4)OCCO5)CC3)c2n1
log10cfu (Streptococcus pneumoniae [1]): 2
Activity (Streptococcus pneumoniae [4]): Active
log10cfu (Streptococcus pneumoniae [6]): >=4

MIC (Staphylococcus aureus): 0.03 mg/L (≈ 0.0639 µM)
IC50 [2]: 0.072 mg/L (≈ 0.153 µM)
logD [3]: 1.52
MIC (Streptococcus pneumoniae [5]): 0.06 mg/L (≈ 0.128 µM)
MIC (Haemophilus influenzae): 0.5 mg/L (≈ 1.06 µM)
Compound: COc1ccc2ncc(F)c(CCN3CC[C@H](NCc4cc5c(cn4)OCCO5)[C@H](O)C3)c2n1
log10cfu (Streptococcus pneumoniae [1]): 2
Activity (Streptococcus pneumoniae [4]): Active
log10cfu (Streptococcus pneumoniae [6]): >=4
